Measured values: patent US20070259908A1, “Mitochondria Activators” (KANEKA CORPORATION, priority 2004, published 2007)

Key:
[1] = system: tissue of the pancreatic islets of Langerhans; experiment: Insulin secretion from cultured tissue of the pancreatic islets of Langerhans (ELISA), as index of mitochondria-activating activity / ATP production; format: cell-based, rat; conditions: for insulin concentration (secretion amount of insulin from tissue of the islets of Langerhans) / insulin concentration, value in parentheses (control = 100): 0.1 μg/ml of each test substance in medium, culture for 1 hr; for insulin concentration (secretion amount of insulin from tissue of the islets of Langerhans): ELISA, control 43 ± 8; for insulin concentration, value in parentheses (control = 100): relative to control (100); for increase of the concentration of insulin in the medium: addition amount of 0.1 μg/ml, versus control
Text: Therefore, a tissue of the pancreatic islets of Langerhans, which reacts with ATP to secrete insulin, was used to evaluate the mitochondria-activating activity of a test substance, with the insulin secretion as an index. As the tissue of the pancreatic islets of Langerhans, a culture kit (manufactured by Hokudo Co., Ltd) prepared from a rat was used. […] In the same manner as in Example 1, a tissue of the pancreatic islets of Langerhans was used to evaluate the mitochondria-activating activity of a test substance, with the insulin secretion as an index. As the tissue of the pancreatic islets of Langerhans, a culture kit (manufactured by Hokudo Co., Ltd) prepared from a rat was used.

kidney = conditions: reported in patent reference 5; narrow safety margin; cited from earlier work
rats = conditions: consecutive administration of 1200 mg/Kg/day for 52 weeks; cited from earlier work

Structure (SMILES)	insulin concentration (secretion amount of insulin from tissue of the islets of Langerhans) [1] [ng/mL]	insulin concentration, value in parentheses (control = 100) [1]	increase of the concentration of insulin in the medium [1] [fold]	toxicity to kidney (kidney)	toxic effect in chronic toxicity test (rats)
COc1c(O)c(C)c(C/C=C(\C)CC/C=C(\C)CC/C=C(\C)CC/C=C(\C)CC/C=C(\C)CC/C=C(\C)CC/C=C(\C)CC/C=C(\C)CC/C=C(\C)CCC=C(C)C)c(O)c1OC [reduced coenzyme Q10]	360 ± 78	837	8.3	–	–
O=C(O)c1cc(C(=O)O)c2c(n1)C(=O)C(=O)c1cc(C(=O)O)[nH]c1-2 [pyrroloquinoline quinone, 2,7,9-tricarboxy-1H-pyrrolo[2,3-f]quinoline-4,5-dione]	220 ± 56	511	5.1	strong toxicity to kidney	–
COC1=C(OC)C(=O)C(C/C=C(\C)CC/C=C(\C)CC/C=C(\C)CC/C=C(\C)CC/C=C(\C)CC/C=C(\C)CC/C=C(\C)CC/C=C(\C)CC/C=C(\C)CCC=C(C)C)=C(C)C1=O [coenzyme Q10]	–	–	–	–	absence of toxic effect
COC1=C(OC)C(=O)C(C/C=C(\C)CC/C=C(\C)CC/C=C(\C)CC/C=C(\C)CC/C=C(\C)CC/C=C(\C)CC/C=C(\C)CC/C=C(\C)CC/C=C(\C)CCC=C(C)C)=C(C)C1=O [oxidized coenzyme Q10, reference compound]	329 ± 85	765	7.7	–	–
O=C(O)CC(O)(CC(=O)O)C(=O)O [citric acid]	2030 ± 391	4720	47	–	–
